pEC50, pIC50: −log10 of the molar value. Where two headings read alike, the source gives them in different places.
Legend:
plasma protein [1] = experiment: Plasma protein binding (rapid equilibrium dialysis), human; assay type: in vitro ADME; conditions: for Binding (%): Human plasma, 5 μM compound, 4 hours
Protocol: (§1) Equilibrium dialysis is an accurate and reliable method for determining protein binding affinities to chemical or biological substances of low molecular weight. The Rapid Equilibrium Dialysis (RED) plate is specifically designed and extensively validated for plasma protein binding assays. It is also designed for minimal non-specific binding (Thermo Fisher).
(§2) • Phosphate buffered saline (PBS) pH 7.4 was prepared using PBS tablets as per the manufacturer's instructions. • Compound and marker stocks were prepared at 10 mM in DMSO and further diluted to 100× the assay concentration in DMSO. • Plasma was thawed on the day of the assay and centrifuged. The supernatant was transferred to a fresh vessel and the pH adjusted to pH 7.4 using lactic acid or sodium hydroxide.
(§3) Pre-prepared 100× assay compound stocks were spiked 1:100 into pH adjusted plasma. 200 μL of spiked plasma was added to the red compartment of the rapid equilibrium dialysis (RED) device for each replicate. 350 μL of PBS was added to the buffer compartment. The plate was sealed with a breathable lid and shaken on an orbital shaker in a 37° C. incubator, 5% CO2 for 4 hours.
(§4) Standard final incubation conditions were 5 μM compound in plasma containing 1% (v/v) DMSO.
(§5) A sample of the plasma/compound mixture was taken, mixed with an equal volume of PBS and quenched 1:3 with ice-cold acetonitrile containing internal standard. Methanol was also added to matrix match with calibration curve samples. This was the t=0 sample.
(§6) Post-incubation, plasma and buffer were sampled from their respective RED device compartments into separate tubes containing an equal volume of the alternate matrix for each replicate. Samples were quenched 1:3 with ice-cold acetonitrile containing internal standard. Methanol was also added to matrix match with calibration curve samples.
Calibration curves were prepared in methanol and spiked such that the matrix was equivalent to the assay samples.
Quenched samples were mixed thoroughly and protein precipitated at −20° C. for a minimum of 12 hours. Samples were then centrifuged at 4° C. Supernatants were transferred to a fresh 96 well plate for analysis.
Positive control markers were included.
(§7) Fraction unbound, percent bound and percent recovery were the standard assay parameters reported. They were calculated using the following equations: […]
An example compound of formula (I) was tested in this assay. Reference Example 2 (RE2) (which corresponds to Example 49 in WO2020/222011 (Sitryx Therapeutics, 2020)) was used as a comparator compound.

IL-1β = experiment: THP-1 AlphaLISA IL-1β cytokine assay (differentiated THP-1 cells); assay type: cell-based; conditions: Homo sapiens
In short: (§8)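 PMA-differentiated THP-1 cells were preincubated 30 min with compound, stimulated with LPS for 24 h, then nigericin for 1 h, all at 37 °C. Supernatant IL-1β and IL-6 were quantified by AlphaLISA. % inhibition is normalised to +LPS and −LPS controls per cytokine.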

[2] = system: NRF2 (nuclear factor erythroid 2-related factor 2); experiment: NRF2 +/-GSH activation assay (DiscoverX PathHunter NRF2 translocation kit, U2OS cells); assay type: cell-based; conditions: Homo sapiens
[3] = system: cryo-preserved hepatocytes; experiment: Hepatocyte stability assay, mouse; assay type: in vitro ADME; conditions: mouse, hepatocytes
In short: (§9)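 Cryopreserved hepatocytes at 0.5×10^6 cells/mL in Leibovitz buffer, 37 °C, with 10 μM compound (0.1% DMSO), duplicate. Samples at 0-60 min, acetonitrile quench, LC-MS/MS; intrinsic clearance and half-life from ln % remaining versus time, with buffer-only incubations as control.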

[4] = Hepatocyte stability assay, mouse; assay type: in vitro ADME; conditions: mouse, hepatocytes, T½
In short: as §9

[5] = system: cryo-preserved hepatocytes; experiment: Hepatocyte stability assay, human; assay type: in vitro ADME; conditions: human, hepatocytes
In short: as §9

[6] = Hepatocyte stability assay, human; assay type: in vitro ADME; conditions: human, hepatocytes, T½
In short: as §9

plasma protein [7] = experiment: Plasma protein binding (rapid equilibrium dialysis), mouse; assay type: in vitro ADME; conditions: 5 μM compound, 4 hours
Protocol: as §1, §2, §3, §4, §5, §6
Calibration curves were prepared in methanol and spiked such that the matrix was equivalent to the assay samples. […]
as §7

IL-6 = experiment: THP-1 AlphaLISA IL-6 cytokine assay (differentiated THP-1 cells); assay type: cell-based; conditions: Homo sapiens
In short: as §8

[8] = U2OS, 6 h, read-out: NRF2 activation EC50, +GSH
[9] = U2OS, 6 h, read-out: NRF2 activation EC50, −GSH
[10] = U2OS, read-out: NRF2 activation Emax, +GSH
[11] = U2OS, read-out: NRF2 activation Emax, −GSH
[12] = THP-1, differentiated THP-1 cells, LPS 24 hr then Nigericin 1 hour, read-out: IL-1β (IC50)
[13] = U2OS, +GSH, normalised to dimethyl fumarate high control, read-out: NRF2 activation Emax, +GSH
[14] = U2OS, −GSH, normalised to dimethyl fumarate high control, read-out: NRF2 activation Emax, −GSH
[15] = +GSH, U2OS PathHunter cells, 6 hours, read-out: NRF2 activation EC50, +GSH
[16] = −GSH, U2OS PathHunter cells, 6 hours, read-out: NRF2 activation EC50, −GSH
[17] = THP-1, differentiated THP-1 cells, LPS 24 hr then Nigericin 1 hour, read-out: IL-6 (IC50)

| Structure (SMILES) | Binding (%) (plasma protein [1]) | Clint [3] | half-life at 10 μM [4] | Clint [5] | half-life at 10 μM [6] | Binding (%) (plasma protein [7]) | pIC50 (IL-1β; [12]) | pEC50 [2, 15] | pEC50 [2, 16] | pIC50 (IL-6; [17]) | Emax [2, 13] | Emax [2, 14] | also measured |
| --- | --- | --- | --- | --- | --- | --- | --- | --- | --- | --- | --- | --- | --- |
| C=C(CC(=O)N[C@@H](C)c1ccc(C(F)(F)F)cc1)C(=O)O [Example 3, (S)-2-methylene-4-oxo-4-((1-(4-(trifluoromethyl)phenyl)ethyl)amino)butanoic acid] | 89.0% | <3 μL min^−1 10^−6 cells | 402 min | 4 μL min^−1 10^−6 cells | > 460 min | 86.8% |  |  |  |  |  |  | plasma protein binding compared to prior art ester compound (in words) (plasma protein [1]; Table 4, human and mouse plasma): lower plasma protein binding; pIC50 (IL-1β; THP-1, read-out: IL-1β (IC50)): 5.66; pIC50 (IL-1β; THP-1, read-out: IL-1β (IC50), data from repeated experiments): 5.40; pEC50 [2, 8]: < 4.00; pEC50 [2, 9]: < 4.00; Emax [2, 10]: 0%; Emax [2, 11]: 0%; half-life at 10 μM ([4]; data from repeated experiments): > 460 min; half-life at 10 μM ([6]; data from repeated experiments): 358 min; pIC50 (IL-6; THP-1, read-out: IL-6 (IC50)): < 4.08 |
| C=C(CC(=O)N[C@@H](C)c1ccc(C(F)(F)F)cn1)C(=O)OC1CCN(S(C)(=O)=O)CC1 [Example 31, 1-(methylsulfonyl)piperidin-4-yl (S)-2-methylene-4-oxo-4-((1-(5-(trifluoromethyl)pyridin-2-yl)ethyl)amino)butanoate] |  | 34 μL min^−1 10^−6 cells | 35 min | 11 μL min^−1 10^−6 cells | 138 min |  |  |  |  |  |  |  | pIC50 (IL-1β; THP-1, read-out: IL-1β (IC50)): 5.62; pEC50 [2, 8]: < 4.00; pEC50 [2, 9]: 4.36; Emax [2, 10]: 27%; Emax [2, 11]: 82%; pIC50 (IL-6; THP-1, read-out: IL-6 (IC50)): 4.88 |
| C=C(CC(=O)N[C@@H](C)c1ccc(C(F)(F)F)cc1)C(=O)OCCN1CCOCC1 [Example 29] |  | 130 μL min^−1 10^−6 cells | 13 min | 39 μL min^−1 10^−6 cells | 38 min |  | 4.99 | < 4.00 | 4.64 | 5.17 | 22% | 86% |  |
| C=C(CC(=O)OCCCCCCCC)C(=O)OCC(=O)O [RE2, reference compound] | >99% |  |  |  |  | >99% |  |  |  |  |  |  |  |

The next lines start with results.

| Binding (%) (plasma protein [1]) | Clint [3] | half-life at 10 μM [4] | Clint [5] | half-life at 10 μM [6] | Binding (%) (plasma protein [7]) | pIC50 (IL-1β; [12]) | pEC50 [2, 15] | pEC50 [2, 16] | pIC50 (IL-6; [17]) | Structure (SMILES) | Emax [2, 13] | Emax [2, 14] | also measured |
| --- | --- | --- | --- | --- | --- | --- | --- | --- | --- | --- | --- | --- | --- |
|  | 215 μL min^−1 10^−6 cells | 6 min | 126 μL min^−1 10^−6 cells | 12 min |  | 5.48 | < 4.00 | 5.20 | 5.85 | C=C(CC(=O)N[C@@H](C)c1ccc(C(F)(F)F)cc1)C(=O)OC1CS(=O)(=O)C1 [Example 27, 1,1-dioxidothietan-3-yl (S)-2-methylene-4-oxo-4-((1-(4-(trifluoromethyl)phenyl)ethyl)amino)butanoate] | 10% | 84% |  |
| 89.2% | 3 μL min^−1 10^−6 cells | > 460 min | <3 μL min^−1 10^−6 cells | 390 min | 83.7% | 5.47 | < 4.00 | < 4.00 | < 4.20 | C=C(CC(=O)NC(C)(C)c1ccc(C(F)(F)F)cc1)C(=O)O [Example 4, 2-methylene-4-oxo-4-((2-(4-(trifluoromethyl)phenyl)propan-2-yl)amino)butanoic acid] | 0% | 1% | pIC50 (IL-1β; THP-1, differentiated THP-1 cells, footnote a: data from repeated experiments, read-out: IL-1β (IC50), data from repeated experiments): 5.41; T½ ([5]; 10 μM): >460 min |
|  | <3 μL min^−1 10^−6 cells | > 460 min | <3 μL min^−1 10^−6 cells | > 460 min |  | 5.72 | < 4.00 | 4.33 | < 5.00 | C=C(CC(=O)N[C@@H](C)c1ccc(C(F)(F)F)cc1)c1nnn[nH]1 [Example 57, (S)-3-(1H-tetrazol-5-yl)-N-(1-(4-(trifluoromethyl)phenyl)ethyl)but-3-enamide] | 48.5% | 55% |  |
|  | 99 μL min^−1 10^−6 cells | 13 min | 49 μL min^−1 10^−6 cells | 37 min |  | 5.15 | < 4.00 | < 4.00 | 5.44 | C=C(CC(=O)N[C@@H](C)c1ccc(C(F)(F)F)cc1)C(=O)OC1CCN(S(C)(=O)=O)CC1 [Example 22, 1-(methylsulfonyl)piperidin-4-yl (S)-2-methylene-4-oxo-4-((1-(4-(trifluoromethyl)phenyl)ethyl)amino)butanoate] | 8% | 3% |  |
|  | 619 μL min^−1 10^−6 cells | 3.5 min | 116 μL min^−1 10^−6 cells | 10 min |  | 5.09 | < 4.00 | 4.72 | 5.14 | C=C(CC(=O)NC1(c2ccc(C(F)(F)F)cc2)CCC1)C(=O)OC1CCN(S(C)(=O)=O)CC1 [Example 9, 1-(methylsulfonyl)piperidin-4-yl 2-methylene-4-oxo-4-((1-(4-(trifluoromethyl)phenyl)cyclobutyl)amino)butanoate] | 55% | 109% |  |
|  | 104 μL min^−1 10^−6 cells | 12 min | 50 μL min^−1 10^−6 cells | 25 min |  | 5.77 | < 4.00 | 4.80 | 5.14 | C=C(CC(=O)N[C@@H](C)c1ccc(C(F)(F)F)cn1)C(=O)OC1CN(S(C)(=O)=O)C1 [Example 37, 1-(methylsulfonyl)azetidin-3-yl (S)-2-methylene-4-oxo-4-((1-(5-(trifluoromethyl)pyridin-2-yl)ethyl)amino)butanoate] | 11% | 90% |  |

Reference: patent US20240245691A1 (Sitryx Therapeutics Limited, priority 2021, published 2024)
